Assay: Dynamic Vapor Sorption/Desorption (DVS)
Type: physicochemical
Settings: 5% to 95% relative humidity at 10% RH intervals, nitrogen purge
Description: Moisture sorption/desorption data were collected on a VTI SGA-100 Vapor Sorption Analyzer. Sorption and desorption data were collected over a range of 5% to 95% relative humidity (RH) at 10% RH intervals under a nitrogen purge. Samples were not dried prior to analysis. Equilibrium criteria used for analysis were less than 0.0100% weight change in 5 minutes, with a maximum equilibration time of 3 hours if the weight criterion was not met. Data were not corrected for the initial moisture content of the samples. Sodium chloride and polyvinypyrrolidine were used as calibration standards.

weight change during moisture sorption/desorption: negligible weight change
Compound: COc1cc(F)c(F)c(Nc2ccc(I)cc2F)c1NS(=O)(=O)C1(C[C@H](O)CO)CC1 [Form A]

Reference: patent US9174933B2
